ChEMBL document CHEMBL1121958, “A consideration for structure-taste correlations of perillartines using pattern-recognition techniques” (J Med Chem, 1982)

Experiment: Partition coefficient (logP)
Type: physicochemical
Settings: octanol/water

| logP | SMILES |
| --- | --- |
| -0.1 | COCC(C)(O)C1CC=C(/C=N/O)CC1 (configuration not stated) |
| 0.8 | COCC1CCC=C(/C=N/O)C1 (configuration not stated) |
| 2.58 | C=C(C)C1CC=C(/C=N/O)CC1 (configuration not stated) |
| 1.1 | COC(C)C1=CCC(/C=N/O)=CC1 (configuration not stated) |
| 1.1 | COC(C)C1=CCC=C(/C=N/O)C1 (configuration not stated) |
| 0.34 | O/N=C/C1=CCSCC1 |
| 1.4 | COC(C)C1CCC=C(/C=N/O)C1 (configuration not stated) |
| 1.9 | O/N=C/C1=CC2C=CC1CC2 (configuration not stated) |
| 1.48 | O/N=C/C1=CCCCC1 |
| -0.1 | COC(C)(CO)C1CC=C(/C=N/O)CC1 (configuration not stated) |
| 2.28 | C=CC1CC=C(/C=N/O)CC1 (configuration not stated) |
| 1.4 | COC(C)C1CC=C(/C=N/O)CC1 (configuration not stated) |
| -0.92 | CC(O)(CO)C1CC=C(/C=N/O)CC1 (configuration not stated) |
| 0.87 | C/C=C(C)/C=N/O |
| 0.78 | CC1=CC=C(/C=N/O)CC1 |
| 0.72 | COCC(C)(OC)C1CC=C(/C=N/O)CC1 (configuration not stated) |
| 1.1 | COCC1CC=C(/C=N/O)CC1 (configuration not stated) |
| -0.72 | O/N=C/C1=CCOCC1 |
| 1.48 | O/N=C/C1=CC=CCC1 |
| -0.72 | O/N=C/C1=CCCOC1 |
| 1.1 | COC(C)C1=CC=C(/C=N/O)CC1 (configuration not stated) |
| 0.8 | COCC1=CCC(/C=N/O)=CC1 |
